According to US11478526B2, “Methods of reducing neuroinflammation or toxicity induced by amyloid beta (abeta) using glucocorticoid induced leucine zipper (GILZ) analog peptides” (INDIANA UNIVERSITY RESEARCH AND TECHNOLOGY CORPORATION, priority 2016, dated 2022):

Legend:
[1] = LD50 predicted from in-vitro IC50 by regression (Speilmann method); conditions: for LD50 estimated from IC50: Log (LD50)=0.506×(log IC50)+0.475, body weight; for LD50 (mM): score 1/0
Method: Lactate dehydrogenase (LDH) assay: To detect direct GA-induced cell lysis we performed LDH release assays (Roche Molecular Diagnostics). […] Approximately 5×10^4 U373 cells/well were cultured in 96-well plates in the presence of increasing concentrations of individual GA or control peptide from 0.5 μM to 500 μM. Cells treated with 2% triton-X 100 (Sigma Aldrich, St. Louis, Mo.) for 10 minutes served as positive control. Untreated cells served as controls for spontaneous LDH-release. Specific LDH-release was calculated according to the following formula: LDH-release %=100*(GA or control peptide treated cells—untreated cells)/(positive control-untreated cells). The IC50 values were extrapolated by logarithmic estimation. The LD50 in mg/kg was predicted using the formula, Log (LD50)=0.506×(log IC50)+0.475. […]

Aβ1-42 exposed HFB cells = experiment: Cytokines in culture medium of Aβ1-42 exposed HFB; assay type: cell-based, human; conditions: 50 μM peptide
Method: Fetal brain materials (10-20 g) were shipped overnight in chilled Hibernate-E medium (Invitrogen) supplemented with B27 (Invitrogen), GlutaMAX (Invitrogen) and antibiotic-antimycotic solution (Cellgro). HFB were prepared and cultured as described. Briefly, cells were cultured in Neurobasal medium (Invitrogen) without phenol red supplemented with 1×B27, […] GlutaMAX, 1×antibiotic cocktail, 5 ng/mL recombinant fibroblast growth factor 2 (bFGF) (Invitrogen), and 2 μL/mL Normocin (InVivoGen, San Diego, Calif., USA). Cells were counted and seeded onto poly-D-lysine (Sigma-Aldrich) coated 24-well plates (Corning, Lowell, Mass., USA) at 1.5×10^5 cells per well and maintained at 37° C. in a 5% CO2 incubator. Half media changes were performed every 4th day of culture and morphology was monitored via phase contrast microscopy. Culture medium was removed from cells on day 17 (DIV17) and replaced with Neurobasal medium with B27. Appropriate wells were then added vehicle, or carrier peptide or individual GA or control peptide (at 50 μM) for 30 min followed by exposure to Aβ1-42 at a final concentration of 10 μM/well and incubated for 4 hours or 48 hours. Cells and conditioned media were harvested and stored for further analysis. Relative ATP concentration was measured using the CTG kit (Promega). Data is presented as ΔRLU=RLU of Aβ1-42 exposed cells-RLU unexposed cells. Conditioned media collected were assessed for specific cytokines using the OptEIA kits (BD Biosciences). Nuclear and cytoplasmic fractions were extracted using the CelLytic™ NuCLEAR™ Extraction Kit (Sigma) following manufacturer's protocol. Five microgram of nuclear extracts was incubated in a 96-well plate coated with oligonucleotides containing the NF-κβ consensus nucleotide sequence (5′-[…]-3′) (SEQ ID NO: 30). The activated NF-κβ bound to DNA was detected by anti-p65 antibody followed by a peroxidase coupled secondary antibody and substrate using the TransAM kit protocol (Active Motif). Nuclear extracts of Raji cells was used as the positive control.
Select PGA protects against Aβ1-42 induced toxicity, prevents p65 activation and cytokine response in human fetal brain (HFB) cells. […] Viability in terms of relative luminescent Units (RLU) was quantified using a Glowmax luminometer (Promega, Wis.). Data are presented as ARLU=RLU of Aβ1-42 exposed cells-RLU of unexposed cells. […] The mean RLU of vehicle treated HFB varied between 7352.75+/−1265.2 and 16157.5+/−4950. […] The culture supernatants were assessed for cytokines by ELISA (R&D Systems, Minn.). […] Primary HFB cultured similarly and harvested at the end of 4 hours was assessed for nuclear p65 using TransAM kit for NF-κB p65 (Active Motif, Calif.).

[2] = tested on: LPS induced neuroinflammation; experiment: LPS induced neuroinflammation: real time PCR of brain tissue; assay type: in vivo, mouse; conditions: 25 mg/kg i.v. alternate days, day 7
Method: Animals and lipopolysaccharide induced neuroinflammation: Male C57/6J mice weighing 32 to 37 grams were housed five per cage at a temperature of 22±2° C. with 12 hour light/12 hour dark cycles with free access to laboratory food and water. Lipopolysaccharides (LPS) from Escherichia coli 026:B6, =10,000 EU/mg, purified by phenol extraction was purchased from Sigma (Sigma Aldrich, Mo., USA). The mice were randomly divided into seven groups: LPS, LPS+GA-1 or GA-2 or CP-1 or CP-2 or CP-3 or TAT. The LPS was administered intraperitoneally at […] in 100 μl of sterile saline followed by corn oil in the morning daily for six days. The GA or CP was administered intravenously at 25 mg/kg in 100 μl of sterile saline on alternate days. Additional control group included mice receiving saline alone. All animals were sacrificed on day 7.
Real time polymerase chain reaction. Total cellular RNA was isolated from each brain tissue using Qiagen kit (Invitrogen, Carlsbad, Calif.) following manufacturer's protocol and reverse transcribed using iScript cDNA synthesis kit (Biorad, Calif.). Equal amount of cDNA measured by the Nanodrop (ThermoFisher Scientific, Waltham, USA) was used for amplification of IL-1β, IL-12, CD14, BclXL and Bcl2. Real time PCR was performed using SYBR green/ROX qPCR master mix (SA Biosciences, Frederick, Md.) on the ABI Prism 7000 sequence detection system (Applied Biosystem, Foster City, Calif., USA). Each reaction contains 2×12.5 μl of master mix, 1 μl of 10 μM of primers and 50 ng of the cDNA, to a total volume of 25 μl. The thermal cycling conditions included an initial denaturation step at 50° C. for 2 min, 95° C. for 3 min, 39 cycles at 95° C. for 30 s, annealing temperature at 62° C. for 30 s and extension at 72° C. for 30 s.
The gene specific threshold cycle (Ct) for each sample (ΔCt) was corrected by subtracting the Ct for the housekeeping gene β-actin. Untreated controls were chosen as the reference samples. The ΔCt for all experimental samples was subtracted by the ΔCt for the control samples (ΔΔCt).The difference in each gene specific threshold between the sample from vehicle treated and GA or CP treated cells was determined to obtain the relative change in the specific mRNA. The magnitude of change in the mRNA was expressed as 2^−ΔΔCt. Each measurement of a sample was performed in duplicates.

Ac-EPAPESPQV-NH2 [GA-2]
LD50 estimated from IC50 [1]: 369.42 mg/kg | relative concentration of IL-6 in culture medium (Aβ1-42 exposed HFB cells): significantly lower | relative concentration of IL-10 in culture medium (Aβ1-42 exposed HFB cells): significantly lower | relative expression of BCl2 in brain tissues [2]: 1.9+/−0.9 | relative expression of BclXL in brain tissues [2]: 0.25+/−0.4 | steady-state mRNA for IL-1β in brain tissues [2]: decreased levels

Ac-EPAPESPQV-NH2 [PGA-4]
LD50 estimated from IC50 [1]: 1693.87 mg/kg | LD50 (mM) [1]: 1 (>100)

Ac-EPAPLAPYG-NH2 [GA-1]
LD50 estimated from IC50 [1]: 380.44 mg/kg | relative concentration of IL-6 in culture medium (Aβ1-42 exposed HFB cells): significantly lower | relative concentration of IL-10 in culture medium (Aβ1-42 exposed HFB cells): significantly lower | relative expression of BCl2 in brain tissues [2]: 1.25+/−0.5 | relative expression of BclXL in brain tissues [2]: 0.32+/−0.15 | relative expression of CD14 mRNA in brain tissues [2]: 0.48+/−0.1 | steady-state mRNA for IL-1β in brain tissues [2]: decreased levels

Ac-EPAPLAPYG-NH2 [PGA-2]
LD50 estimated from IC50 [1]: 1396.83 mg/kg | LD50 (mM) [1]: 1 (>100)
